What was measured:
[1] = system: LLC tumors; assay: LLC syngeneic tumor model; format: in vivo, C57BL/6 mice
Experimental: All experiments were approved by the IACUC and performed with strict adherence to a series of documents and standards of procedures (SOPs) relative to animal ethics and welfare. The mice were housed in cages with controlled temperature (25 ± 2 °C) and humidity (65 ± 5%) under a 12 h light/dark cycle. After a one-week adaptation period, six to eight-week-old female mice were injected s.c. with LLC (5 × 10^5), B16F10 (2 × 10^5), or MC38 (2 × 10^6) cells into the lower right flank. Approximately seven days after the subcutaneous injection of tumor cells, the mice were randomly divided into four groups. RORγt agonist 8-074, LYC-55716 (BioChemPartner, Shanghai, China) and anti-PD-1 (BioXCell, New Hampshire, USA) treatment commenced when the average tumor size reached 50 mm^3 for LLC and B16F10 and 150 mm^3 for MC38. The 5 × 10^5 LLC cells were transplanted subcutaneously into the right flank of the C57BL/6 mice seven days after being transplanted, and the mice were randomly divided into four groups. Anti-PD-1 was administrated one day after the RORγt agonist was treated (Clone: PMP1-14; 200 μg via intraperitoneal injection on day 1, 4, 7, 10, 13 after treatment with 8-074). For the CD8^+ T cell depletion, mice were injected intraperitoneally (i.p.) with 400 μg of anti-CD8α (YTS 169.4; BioXCell, New Hampshire, USA) one day before and dosed per week after the anti-PD-1 treatment. Mice with established tumors were treated using intraperitoneal injection of 8-074 (indicated dose), LYC-55716 (50 mg/kg) or DMSO (SIGMA, New Jersey, USA) every day. […] The tumor volume based on the caliper measurements was calculated using the modified ellipsoidal equation, where the tumor volume = 1/2 (length × width ^2) and the length was the longer dimension. […] TGI was calculated using the equation: [(Ct – C0) – (Tt – T0)] / (Ct – C0) × 100, where Ct = the mean tumor volume of the control group at the time (t); C0 = the mean tumor volume of the control group at t0; Tt = mean tumor volume of the treatment group at t; and T0 = mean tumor volume of the treatment group at t0.

[2] = target: T1, RORα (Homo sapiens, UniProt P35398); assay: RORα Gal4 reporter gene assay; format: cell-based
T1 construct: expressed in transfected cells
T1 sequence (P35398 1-523): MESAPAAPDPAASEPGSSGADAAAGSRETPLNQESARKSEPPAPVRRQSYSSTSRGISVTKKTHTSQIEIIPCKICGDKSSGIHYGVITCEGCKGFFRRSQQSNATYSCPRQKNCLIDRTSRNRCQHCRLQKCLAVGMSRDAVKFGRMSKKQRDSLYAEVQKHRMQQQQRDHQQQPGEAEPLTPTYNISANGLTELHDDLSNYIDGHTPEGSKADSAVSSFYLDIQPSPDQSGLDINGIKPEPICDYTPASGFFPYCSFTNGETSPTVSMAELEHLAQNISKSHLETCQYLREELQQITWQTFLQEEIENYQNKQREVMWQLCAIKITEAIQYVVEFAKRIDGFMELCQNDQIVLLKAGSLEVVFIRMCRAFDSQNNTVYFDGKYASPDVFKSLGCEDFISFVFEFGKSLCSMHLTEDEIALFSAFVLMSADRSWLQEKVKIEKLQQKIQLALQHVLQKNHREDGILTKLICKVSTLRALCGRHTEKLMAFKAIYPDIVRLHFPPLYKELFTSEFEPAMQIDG

[3] = system: OVA-pulsed EL-4 lymphoma cells; assay: Ex vivo cytotoxicity assay of Tc17 cells; format: cell-based, mouse; conditions: Tc17 cells differentiated from OT-I T cells with 8-074
Experimental: The EL4 cells were pulsed using 50 ng/ml OVA257-264 peptide (SIINFEKL) (Sangon Biotech, Shanghai, China) for 2 h at 37 °C and then labeled with 0.25 μM or 2.5 μM of CFSE (carboxyfluorescein succinimidyl ester; Thermo Fisher Scientific, Massachusetts, America) for 10 min at 37 °C. CFSE^l°^w (SIINFEKL loaded target) and CFSE^high (irrelevant peptide control) EL4 cells were mixed at a 1:1 ratio and then co-cultured with Tc17 cells differentiated from OT-I T cells challenged (or not) with 8-074 at 30:1, 10:1, 3:1, and 1:1 effector to target cell ratios (E: T). The frequencies of the CFSE^l°^w and CFSE^high EL4 cells in the CFSE positive fraction were determined using flow cytometric analysis 18 h after incubation, and the percent of the specific killing was calculated. Specific killing (%) = [1 − (Sample ratio) / (Negative control ratio)] × 100; Sample ratio = [CFSE^l°^w(target)/CFSE^high(irrelevant)] value of each sample co-cultured with Tc17 cells; Negative control ratio = [CFSE^l°^w(target) / CFSE^high (irrelevant)] value of EL4 cells not cultured with Tc17 cells.

[4] = target: T2, RORγt (Homo sapiens, UniProt P51449); assay: RORγt dual FRET assay; format: biochemical
T2 sequence (P51449 263-518 limits assumed): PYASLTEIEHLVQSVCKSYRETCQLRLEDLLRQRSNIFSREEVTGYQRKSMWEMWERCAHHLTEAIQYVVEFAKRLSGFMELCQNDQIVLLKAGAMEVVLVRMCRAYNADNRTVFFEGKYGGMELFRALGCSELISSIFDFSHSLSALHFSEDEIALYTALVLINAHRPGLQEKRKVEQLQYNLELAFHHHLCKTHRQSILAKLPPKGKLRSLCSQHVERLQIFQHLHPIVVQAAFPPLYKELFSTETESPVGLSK
T2 sequence (Q15788 676-700 partner limits assumed): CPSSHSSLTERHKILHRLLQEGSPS
Experimental: The assay was performed according to a previous study. The plates were incubated for 1 h at room temperature and then read on Envision in LANCE mode configured for the europeum-APC labels.

EC50 [2]: > 10000 nM
EC50 [4]: 19.9 nM
RORγt dual FRET %max ([4]; maximal activation): 199%
SMILES: CCS(=O)(=O)c1ccc(CC(=O)Nc2ccc(-c3ccc(CC(C)C)c(C#N)c3)c(C(F)(F)F)c2)cc1 [8-074]
TGI ([1]; LLC combination study Fig. 3e, anti-PD-1 10 mg/kg every three days i.p., 8-074 i.p. every day): 59.3%
body weight of mice ([1]; LLC model, dose escalation): slight body weight loss
Tumor growth inhibition (TGI) ([1]; LLC, 50 mg/kg i.p. QD over two weeks, Fig. 3a): 55.6%
cytotoxic killing activity of treated Tc17 cells [3]: significant increase
